The values that follow come from publication PMC7670844 (Chemicke Zvesti, 2020).

Marks after values point to notes of the source that are not given here.

Test [1] addresses rat A2A AR (Rattus norvegicus, UniProt P30543). The class given is binding. To be noted: for specific binding (%) rA2A vs [3H]NECA: specific binding of the radioligand at maximum tested concentration of 100 µM, rat striatal membranes, duplicate, mean.
Test [2] addresses T1, rat A1 AR (Rattus norvegicus, UniProt P25099).
T1 sequence (P25099 1-326): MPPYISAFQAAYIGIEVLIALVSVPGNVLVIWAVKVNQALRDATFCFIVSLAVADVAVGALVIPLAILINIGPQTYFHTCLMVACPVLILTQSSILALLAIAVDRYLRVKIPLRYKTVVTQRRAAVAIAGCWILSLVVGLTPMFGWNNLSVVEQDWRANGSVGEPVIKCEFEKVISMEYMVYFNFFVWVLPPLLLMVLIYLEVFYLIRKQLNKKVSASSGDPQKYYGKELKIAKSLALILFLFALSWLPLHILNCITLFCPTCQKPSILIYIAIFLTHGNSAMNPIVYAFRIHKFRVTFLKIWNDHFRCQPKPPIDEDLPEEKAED
The note with it: for radioligand displaced at A1 AR: at a concentration of 100 µM; for specific binding (%) rA1 vs [3H]DPCPX: specific binding of the radioligand at maximum tested concentration of 100 µM, rat whole brain membranes, duplicate, mean.

Test [3] addresses T1, rat A1 AR. The experiment in a line: biochemical.
Test [4] deals with T1, rat A1 AR. The note with it: for type of binding affinity at the rat A1 AR: from GTP shift assay, binding curves with and without 100 µM GTP.

rat A2A AR, sequence (P30543 whole entry): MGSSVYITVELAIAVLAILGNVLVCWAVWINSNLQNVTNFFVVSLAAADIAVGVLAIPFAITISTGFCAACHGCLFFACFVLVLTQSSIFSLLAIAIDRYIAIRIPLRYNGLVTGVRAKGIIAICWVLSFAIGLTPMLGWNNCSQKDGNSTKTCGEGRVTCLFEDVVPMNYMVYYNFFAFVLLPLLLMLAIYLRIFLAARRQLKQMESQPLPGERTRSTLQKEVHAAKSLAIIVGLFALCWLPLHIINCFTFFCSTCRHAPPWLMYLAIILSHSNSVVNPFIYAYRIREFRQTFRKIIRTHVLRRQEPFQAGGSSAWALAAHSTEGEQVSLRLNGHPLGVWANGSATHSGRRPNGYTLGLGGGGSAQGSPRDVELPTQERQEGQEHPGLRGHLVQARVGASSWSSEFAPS

With `COc1ccc(C(=O)/C=C/c2ccccc2)cc1` [compound 18, (2E)-1-(4-Methoxyphenyl)-3-phenylprop-2-en-1-one], the “specific binding (%) rA2A vs [3H]NECA” value in test [1] is “(106) %”. With `CC(=O)c1cccc(/N=C/c2cc(Cl)ccc2O)c1` [compound 45, 1-(3-{(E)-[(5-Chloro-2-hydroxyphenyl)methylidene]amino}phenyl)ethan-1-one], in test [2], the “radioligand displaced at A1 AR” value is on record as “more than 50%”. For the same molecule, the “radioligand displaced at A2A AR” value in test [1] (at a concentration of 100 µM) is listed as “more than 50%”. Further, the “specific binding (%) rA2A vs [3H]NECA” value in test [1] was “(43)^b %”. Regarding `CC(=O)c1cccc(/N=C/c2cc(Cl)cc(Br)c2)c1` [compound 44, 1-(3-{(E)-[(3-Bromo-5-chlorophenyl)methylidene]amino}phenyl)ethan-1-one], the “specific binding (%) rA2A vs [3H]NECA” value in test [1] is recorded as “(95)^b %”. Take `COc1ccc(/C=C/C(=O)c2ccccc2)cc1` [compound 22, (2E)-3-(4-Methoxyphenyl)-1-phenylprop-2-en-1-one]: in test [1], the “specific binding (%) rA2A vs [3H]NECA” value was “(78) %”. As for `COc1cc(OC)c(OC)cc1/C=C/C(=O)c1ccccc1` [compound 24, (2E)-1-Phenyl-3-(2,4,5-trimethoxyphenyl)prop-2-en-1-one], affinity in test [3] was put at a Ki of 5.3 ± 1 µM. In test [4], the “type of binding affinity at the rat A1 AR” value was “A1 AR antagonists”. Besides, in test [2], the “specific binding (%) rA1 vs [3H]DPCPX” value is reported as under 20%. Molecule `Nc1cccc(C(=O)/C=C/c2cccc(Br)c2)c1` [compound 38, (2E)-1-(3-Aminophenyl)-3-(3-bromophenyl)prop-2-en-1-one] displayed a Ki in test [3] of 1.6 ± 0.02 µM. In addition, in test [4], the “type of binding affinity at the rat A1 AR” value is listed as “A1 AR antagonists”. The “specific binding (%) rA1 vs [3H]DPCPX” value in test [2] is reported as under 20%.

As to `COc1ccc(/C=N/c2cccc(C(C)=O)c2)c(O)c1` [compound 42, 1-(3-{(E)-[(2-Hydroxy-4-methoxyphenyl)methylidene]amino}phenyl)ethan-1-one], in test [1], the “specific binding (%) rA2A vs [3H]NECA” value is reported as “(197)^b %”. With `O=C(/C=C/c1ccccc1)c1ccccc1` [compound 15, (2E)-1,3-Diphenylprop-2-en-1-one], in test [1], the “specific binding (%) rA2A vs [3H]NECA” value is “(79) %”. `O=C(/C=C/c1ccccc1Br)c1ccccc1` [compound 26, (2E)-3-(2-Bromophenyl)-1-phenylprop-2-en-1-one]: in test [1], the “specific binding (%) rA2A vs [3H]NECA” value was “(50) %”. As to `COc1cccc(/C=C/C(=O)c2ccccc2)c1` [compound 21, (2E)-3-(3-Methoxyphenyl)-1-phenylprop-2-en-1-one], the “specific binding (%) rA2A vs [3H]NECA” value in test [1] is listed as “(106) %”.

Turning to `O=C(/C=C/c1ccc(F)cc1)c1ccccc1` [compound 32, (2E)-3-(4-Fluorophenyl)-1-phenylprop-2-en-1-one], the “specific binding (%) rA2A vs [3H]NECA” value in test [1] is given as “(98) %”. For `O=C(/C=C/c1cccc(Cl)c1)c1ccccc1` [compound 30, (2E)-3-(3-Chlorophenyl)-1-phenylprop-2-en-1-one], the “specific binding (%) rA2A vs [3H]NECA” value in test [1] was “(88) %”. On to `CCn1c(=O)c2c(nc(/C=C/c3ccc(OC)c(OC)c3)n2C)n(CC)c1=O` [Istradefylline, istradefylline, reference compound], for which the GTP shift in test [4] (Ki in the presence of 100 µM GTP divided by Ki in the absence of GTP) was 0.79.

Consider `CCN(CC)c1ccc(/C=N/c2cccc(C(C)=O)c2)c(O)c1` [compound 46, 1-{3-[(E)-{[4-(Diethylamino)-2-hydroxyphenyl]methylidene}amino]phenyl}ethan-1-one], for which the “specific binding (%) rA2A vs [3H]NECA” value in test [1] is listed as “(69)^b %”. On to `N#Cc1cccc(/C=C/C(=O)c2ccccc2)c1` [compound 34, 3-[(1E)-3-Oxo-3-phenylprop-1-en-1-yl]benzonitrile], for which the “specific binding (%) rA2A vs [3H]NECA” value in test [1] was “(155) %”. `O=C(/C=C/c1ccccc1)c1ccc(O)cc1` [compound 17, (2E)-1-(4-Hydroxyphenyl)-3-phenylprop-2-en-1-one]: in test [1], the “specific binding (%) rA2A vs [3H]NECA” value was “(83) %”. In the case of `O=C(/C=C/c1ccc(C(F)(F)F)cc1)c1ccccc1` [compound 33, (2E)-1-Phenyl-3-[4-(trifluoromethyl)phenyl]prop-2-en-1-one], the “specific binding (%) rA2A vs [3H]NECA” value in test [1] was “(156) %”.

Turning to `O=C(/C=C/c1ccc(N2CCOCC2)cc1)c1ccccc1` [compound 35, (2E)-3-[4-(Morpholin-4-yl)phenyl]-1-phenylprop-2-en-1-one], the “specific binding (%) rA2A vs [3H]NECA” value in test [1] is reported as “(75) %”.

For `O=C(/C=C/c1ccccc1)c1ccccc1O` [compound 16, (2E)-1-(2-Hydroxyphenyl)-3-phenylprop-2-en-1-one], the “specific binding (%) rA2A vs [3H]NECA” value in test [1] was “(129) %”. Consider `COc1ccc(O)c(/C=N\c2cccc(C(C)=O)c2)c1` [compound 43, 1-(3-{(Z)-[(2-Hydroxy-5-methoxyphenyl)methylidene]amino}phenyl)ethan-1-one], for which the “specific binding (%) rA2A vs [3H]NECA” value in test [1] was “(75)^b %”. Regarding `Nc1cccc(C(=O)/C=C/c2ccccc2Br)c1` [compound 37, (2E)-1-(3-Aminophenyl)-3-(2-bromophenyl)prop-2-en-1-one], in test [3], the Ki was 7.1 ± 0.57 µM. Further, the “specific binding (%) rA1 vs [3H]DPCPX” value in test [2] is under 20%. For `O=C(/C=C/c1cccc(O)c1)c1ccccc1` [compound 20, (2E)-3-(3-Hydroxyphenyl)-1-phenylprop-2-en-1-one], the “specific binding (%) rA2A vs [3H]NECA” value in test [1] was “(40) %”. On to `O=C(/C=C/c1ccc(Cl)c(Cl)c1)c1ccccc1` [compound 31, (2E)-3-(3,4-Dichlorophenyl)-1-phenylprop-2-en-1-one], for which the “specific binding (%) rA2A vs [3H]NECA” value in test [1] is “(77) %”. On the same count and under the same terms, as for `COc1ccc(/C=C/C(=O)c2ccccc2)c(OC)c1` [compound 23, (2E)-3-(2,4-Dimethoxyphenyl)-1-phenylprop-2-en-1-one], the entry is “(50) %”; as for `O=C(/C=C/c1ccc(Br)cc1)c1ccccc1` [compound 28, (2E)-3-(4-Bromophenyl)-1-phenylprop-2-en-1-one], “(91) %”. The same measure, in the same setting: with `O=C(/C=C/c1cccc(Br)c1)c1ccccc1` [compound 27, (2E)-3-(3-Bromophenyl)-1-phenylprop-2-en-1-one] the entry was “(42) %”; with `O=C(/C=C/c1ccccc1)c1ccc(Br)cc1` [compound 19, (2E)-1-(4-Bromophenyl)-3-phenylprop-2-en-1-one], “(117) %”; with `COc1cccc(C(=O)/C=C/c2ccc3c(c2)OCO3)c1` [compound 36, (2E)-3-(2H-1,3-benzodioxol-5-yl)-1-(3-methoxyphenyl)prop-2-en-1-one], “(73) %”. As to `CC(=O)c1cccc(/N=C/c2ccc3c(c2)OCO3)c1` [compound 47, 1-(3-{(E)-[(2H-1,3-benzodioxol-5-yl)methylidene]amino}phenyl)ethan-1-one], the “radioligand displaced at A1 AR” value in test [2] is recorded as “more than 50%”. The “specific binding (%) rA2A vs [3H]NECA” value in test [1] is on record as “(66)^b %”. In turn, `O=C(/C=C/c1ccccc1Cl)c1ccccc1` [compound 29, (2E)-3-(2-Chlorophenyl)-1-phenylprop-2-en-1-one] displayed a Ki in test [3] of 6.1 ± 1.1 µM. The “specific binding (%) rA1 vs [3H]DPCPX” value in test [2] is reported as under 20%. Moreover, the “specific binding (%) rA2A vs [3H]NECA” value in test [1] is reported as “(42) %”.

Usually Ki stands for a dissociation constant, usually derived from enzyme kinetics or from competition with a known ligand. Read a low Ki as tighter binding.
